“Also recorded” adds a separate entry of the source. Where two headings read alike, the source gives them in different places.
Columns and labels:
CYP2D6 [1] = assay: Metabolic stability in cryopreserved human hepatocytes with/without quinidine
Experimental: (§1) Incubation volumes were 250 μL for liver microsomes and 100 μL for hepatocytes. The liver microsomal incubation mixtures contained potassium phosphate buffer (50 mM, pH 7.4) with an NADPH-generating system which consisted of NADP (1 mM), glucose-6-phosphate (5 mM), MgCl2 (3 mM), EDTA (1 mM) and glucose-6-phosphate dehydrogenase (1 Unit/mL) at the final concentrations indicated. The hepatocyte incubation was in KHB buffer. Cryopreserved human hepatocytes were thawed according to the supplier's instruction, and pooled from three female donors. […] Aliquots of supernatant fractions were analyzed by an LC/MS/MS method using an Acquity UPLC liquid chromatography system with an Acquity BEH C18, 1.7 μm (2.1×100 mm) column and the MassLynx 4.1 with QuanLynx data acquisition and processing software, each available from Waters Corp., Milford, Mass.
(§2) Dextromethorphan was used as a positive control. Briefly, the concentration-time data were fitted by nonlinear regression with the following equation: Ct/C0=e^−kt where Ct is the substrate concentration at time t and C0 is the initial concentration (1 μM) at time 0. In the calculations, the area ratio of the substrate peak to an internal standard peak is proportional to the analyte concentration and used for regression analysis to get the value of k. Then the in vivo intrinsic clearance (CLint) can be predicted using the equations below with an assumption that C0 is much lower than Km, a constant that is equal to the substrate concentration at which an enzyme reaction proceeds at half the maximum velocity.

[2] = as above; details: female, human, hepatocytes
Experimental: as §1, §2

CYP2D6 [3] = assay: Metabolic stability in human liver microsomes with/without quinidine
Experimental: as §1, §2

[4] = as above; details: both, human, microsomes, pH 7.4
Experimental: as §1, §2

human VMAT1 transporter = target: T1, human VMAT1 transporter (Homo sapiens, UniProt P54219); assay: Uptake in cells expressing VMAT1; format: cell-based; details: concentrations up to 10 μM
T1 construct: expressed in transfected cells
T1 sequence (P54219 1-525): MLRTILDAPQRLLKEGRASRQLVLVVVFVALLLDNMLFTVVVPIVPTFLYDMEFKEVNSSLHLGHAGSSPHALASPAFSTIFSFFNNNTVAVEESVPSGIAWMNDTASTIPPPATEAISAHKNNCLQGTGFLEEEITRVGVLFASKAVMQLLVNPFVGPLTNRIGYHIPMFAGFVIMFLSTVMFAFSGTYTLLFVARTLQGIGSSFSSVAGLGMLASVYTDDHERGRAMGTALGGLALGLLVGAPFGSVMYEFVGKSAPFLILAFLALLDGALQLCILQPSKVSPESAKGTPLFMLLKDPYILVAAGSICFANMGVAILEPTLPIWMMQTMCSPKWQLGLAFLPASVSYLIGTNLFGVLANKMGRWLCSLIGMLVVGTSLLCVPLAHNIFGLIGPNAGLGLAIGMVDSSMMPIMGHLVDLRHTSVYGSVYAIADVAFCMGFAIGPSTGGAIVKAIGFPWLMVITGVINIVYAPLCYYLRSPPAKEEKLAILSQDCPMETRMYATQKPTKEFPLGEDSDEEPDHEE

[5] = Plasma concentrations of circulating metabolites of VBZ; format: in vivo; details: after VBZ
[6] = test system: more than 80 targets (GPCRs, cell-surface monoamine transporters, ion channels including HERG); assay: Cerep multi-target activity screen; format: binding; details: broad panel screen
CYP2D6 [7] = assay: in vitro; details: female, human, hepatocytes
Experimental: as §1, §2

in vitro [8] = details: female, human, hepatocytes
Experimental: as §1, §2

CYP2D6 [9] = assay: in vitro; details: both, human, microsomes, pH 7.4
Experimental: as §1, §2

in vitro [10] = details: both, human, microsomes, pH 7.4
Experimental: as §1, §2

[11] = test system: dopamine, serotonin and adrenergic receptor subtypes; assay: Detailed radioligand binding assays, monoamine receptors; details: for interaction with D1 and D2 receptors: radioligand binding assays and broad panel screen
[12] = test system: CYP2D6, CYP1A1, CYP1A2, CYP1B1, CYP3A4 and CYP3A5; details: 1 μM, pH 7.4
[13] = Healthy volunteer studies, coadministration of NBI-98854 with strong CYP2D6 inhibitors; format: in vivo, human; details: NBI-98854 coadministered with strong CYP2D6 inhibitors; preliminary data
CYP2D6 [14] = details: both, human, microsomes, 1 μM, pH 7.4
Experimental: as §1, §2

CYP2D6 [15] = details: female, human, hepatocytes, 1 μM
Experimental: as §1, §2

[16] = Phase 3 clinical trial in tardive dyskinesia, plasma concentrations; format: in vivo, human; details: valbenazine 40 or 80 mg once daily, Weeks 2, 4, 6
Experimental: A Phase 3 clinical trial for patients with tardive dyskinesia (TD) and a psychiatric diagnosis (i.e., schizophrenia/schizoaffective disorder, mood disorder) who received once-daily valbenazine 40 or 80 mg for 6 weeks was also conducted.
Plasma samples for determination of plasma valbenazine and [+]-α-HTBZ concentrations were obtained at Weeks 2, 4, and 6. Plasma valbenazine and [+]-α-HTBZ concentrations were determined using validated HPLC-MS/MS methods. PK parameters were determined using standard non-compartmental methods. Dose-normalized plasma concentrations of valbenazine and [+]-α-HTBZ at Weeks 2, 4, and 6 in the subgroup of patients prescribed concomitant potent CYP2D6 inhibitors (paroxetine, fluoxetine, duloxetine, sertraline, or bupropion) were compared by t-test to respective concentrations in patients not receiving a CYP2D6 inhibitor.

[17] = Prolactin release, in vivo surrogate measure
[18] = in vivo; cited from earlier work
[19] = with concomitant CYP2D6 inhibitors
[20] = without concomitant CYP2D6 inhibitors

Compound: COc1ccc2c(c1)[C@]13CCCC[C@@H]1[C@H](C2)N(C)CC3 [Dextromethorphan]
- CLint scaled at 1 μM (CYP2D6 [1]; female, human, hepatocytes): 3.23 mL/min/kg
- % Contribution by CYP2D6 (CYP2D6 [1]; human hepatocytes): 85.8%
- CLint scaled at 1 μM [2]: 22.6 mL/min/kg
- CLint scaled at 1 μM (CYP2D6 [3]; both, human, microsomes, pH 7.4): 8 mL/min/kg
- % Contribution by CYP2D6 (CYP2D6 [3]; human liver microsomes): 84.0%
- inhibition of intrinsic clearance in the presence of quinidine (CYP2D6 [3]; quinidine 3 μM, text summary for microsomes and hepatocytes): more than 80%
- CLint scaled at 1 μM [4]: 50 mL/min/kg

Compound: COc1cc2c(cc1OC)[C@H]1C[C@@H](OC(=O)[C@@H](N)C(C)(C)O)[C@H](CC(C)C)CN1CC2 [NBI-136110]
- inhibition of uptake through VMAT1 (human VMAT1 transporter): no significant inhibitory activity; also recorded: no significant effect
- decline of plasma concentrations, half-life [5]: half-lives similar to VBZ
- affinity for more than 80 binding sites [6]: little to no affinity

Compound: COc1cc2c(cc1OC)[C@H]1C[C@@H](O)[C@H](CC(C)C)CN1CC2 [R,R,R-DHTBZ, (2R,3R,11bR)-3-isobutyl-9,10-dimethoxy-1,3,4,6,7,11b-hexahydro-2H-pyrido[2,1-a]isoquinolin-2-ol]
- CLint scaled at 1 μM (CYP2D6 [7]): 4 mL/min/kg
- CLint scaled at 1 μM (in vitro [8]): 8.8 mL/min/kg
- CLint scaled at 1 μM (CYP2D6 [9]): 3.9 mL/min/kg
- CLint scaled at 1 μM (in vitro [10]): 10.4 mL/min/kg
- inhibition of uptake through VMAT1 (human VMAT1 transporter): no significant inhibitory activity; also recorded: no significant effect
- specificity for VMAT2 versus monoamine receptor subtypes [11]: high specificity
- enzymes catalyzing oxidative metabolism in human liver [12]: in part catalyzed by CYP2D6, with some contribution from CYP1A1, CYP1A2, CYP1B1, CYP3A4 and CYP3A5
- increase of area under the plasma concentration versus time curve (AUC) [13]: approximately 2 fold
- increase of maximum plasma concentration (Cmax) [13]: approximately 2 fold
- % Contribution by CYP2D6 (CYP2D6 [14]): 62.6%
- decline of plasma concentrations, half-life [5]: half-lives similar to VBZ
- % Contribution by CYP2D6 (CYP2D6 [15]): 54.3%
- affinity for more than 80 binding sites [6]: little to no affinity
- Mean (±SD) dose-normalized plasma concentration [16, 19]: 0.534 ± 0.321 ng/mL/mg
- Mean (±SD) dose-normalized plasma concentration [16, 20]: 0.513 ± 0.326 ng/mL/mg

Compound: COc1cc2c(cc1OC)[C@@H]1C[C@@H](O)[C@@H](CC(C)C)CN1CC2 [R,S,S-DHTBZ]
- interaction with D1 and D2 receptors [11]: interact with D1 and D2 receptors

Compound: COc1cc2c(cc1OC)[C@@H]1C[C@H](O)[C@@H](CC(C)C)CN1CC2 [S,S,S-DHTBZ]
- interaction with D1 and D2 receptors [11]: interact with D1 and D2 receptors

Compound: COc1cc2c(cc1OC)C1CC(=O)C(CC(C)C)CN1CC2 (stereo not drawn) [TBZ, tetrabenazine, reference compound]
- inhibition of uptake through VMAT1 (human VMAT1 transporter): no significant inhibitory activity; also recorded: no significant effect
- increase in serum prolactin levels [17]: increase in serum prolactin levels

Compound: COc1cc2c(cc1OC)[C@H]1C[C@@H](OC(=O)[C@@H](N)C(C)C)[C@H](CC(C)C)CN1CC2 [Valbenazine, (S)-2-amino-3-methyl-butyric acid (2R,3R,11bR)-3-isobutyl-9,10-dimethoxy-1,3,4,6,7,11b-hexahydro-2H-pyrido[2,1-a]isoquinolin-2-yl ester]
- inhibition of uptake through VMAT1 (human VMAT1 transporter; listed as VBZ): no significant inhibitory activity; also recorded: no significant effect
- affinity for more than 80 binding sites [6]: little to no affinity
- Mean (±SD) dose-normalized plasma concentration [16, 19]: 3.375 ± 2.037 ng/mL/mg
- Mean (±SD) dose-normalized plasma concentration [16, 20]: 3.683 ± 2.360 ng/mL/mg

Compound: COC(=O)[C@H]1[C@H]2C[C@@H]3c4[nH]c5cc(OC)ccc5c4CCN3C[C@H]2C[C@@H](OC(=O)c2cc(OC)c(OC)c(OC)c2)[C@@H]1OC [reserpine, reference compound]
- inhibition of uptake through VMAT1 (human VMAT1 transporter): substantially inhibited uptake through VMAT1

Compound: α-dihydrotetrabenazine
- increase of AUC [18]: ~3 fold
- increase of Cmax [18]: approximately 30%

Reference: US11040029B2, “Methods for the administration of certain VMAT2 inhibitors” (Neurocrine Biosciences, Inc., priority 2017, dated 2021)
